Results as given in article PMC5972519 (Journal of pharmaceutical and biomedical analysis, 2016).

Assays:
[1] = Plasma pharmacokinetics of; type: in vivo, Wistar rat; conditions: for concentration at 30 min / concentration at 40 min: male, Wistar, rat, ip; for concentration at 30 min / concentration at 40 min / t1/2 / Cmax / Tmax: plasma; for t1/2 Ratio (A/C): Acute Arm t1/2 / Chronic Arm t1/2 (fold reduction by 14-day dosing); for Plasma concentration Ratio (C/A): Chronic Arm / Acute Arm; for Plasma concentration at 30 min after ip administration: Acute Arm, single ip 40 mg/kg (R,S)-Ket
[2] = Partitioning between whole blood and plasma; type: in vitro ADME; conditions: mouse whole blood, spiked 10, 1 and 0.1 μM, 30 min at 37°C
[3] = Acute: single ip 40 mg/kg (R,S)-Ket
[4] = Acute: single ip 40 mg/kg (R,S)-Ket, 40 mg/kg
[5] = Sub-chronic: Day 14 of ip 40 mg/kg (R,S)-Ket once per day for 14 days

NC1(c2ccccc2Cl)CCC=CC1=O (racemic) [(R,S)-DHNK, (R,S)-dehydronorketamie]
Plasma concentration at any sampling time ([1]; after ip 40 mg/kg (R,S)-Ket, both arms): ≤ 10 ng/mL | Share of compound found in the plasma fraction after incubation with whole blood [2]: < 20%

CNC1(c2ccccc2Cl)CCCCC1=O (racemic) [(R,S)-Ket, (R,S)-Ketamine, reference compound]
Plasma concentration between 5 min and 60 min post-administration [1, 3]: > 1,000 ng/ml | concentration at 30 min ([1]; 40 mg/kg): 2780 ng/mL | concentration at 40 min ([1]; 40 mg/kg): 2600 ng/mL | Share of compound found in the plasma fraction after incubation with whole blood [2]: > 90%

NC1(c2ccccc2Cl)CCCCC1=O (racemic) [(R,S)-norKet, (R,S)-norketamine]
Fold reduction of relative plasma concentration by subchronic dosing ([1]; 30 min post dosing, subchronic versus acute): 1.6 fold | t1/2 Ratio (A/C) [1]: 1.4 | Plasma concentration between 5 min and 60 min post-administration [1, 3]: > 1,000 ng/ml | Plasma concentration Ratio (C/A) ([1]; 30 min post dosing): 0.62 | concentration at 30 min ([1]; 40 mg/kg): 2130 ng/mL | concentration at 40 min ([1]; 40 mg/kg): 1340 ng/mL | Share of compound found in the plasma fraction after incubation with whole blood [2]: > 90%

NC1(c2ccccc2Cl)CC(O)CCC1=O [(2S,4R;2R,4S)-HNK, (2S,4R;2R,4S)-hydroxynorketamine]
Plasma concentration at 30 min after ip administration [1]: 218 ng/mL | Plasma concentration between 5 min and 60 min post-administration [1, 3]: > 50 ng/mL | Plasma concentration at 10 min post-dosing [1, 4]: 257 ± 195 ng/mL | Plasma concentration Ratio (C/A) ([1]; 30 min post dosing): 1.7 | Plasma concentration Ratio (C/A) ([1]; 30 min post dosing, listed as (2S,4R,2R,4S)-HNK): 1.73 | t1/2 [1, 5]: 5.0 h

NC1(c2ccccc2Cl)CC(O)CCC1=O [(2S,4S;2R,4R)-HNK]
Plasma concentration between 5 min and 60 min post-administration [1, 3]: > 50 ng/mL | Plasma concentration at 10 min post-dosing [1, 4]: 196 ± 132 ng/mL

NC1(c2ccccc2Cl)CCC(O)CC1=O [(2S,5S;2R,5R)-HNK]
Plasma concentration at 10 min post-dosing [1, 3]: 181 ± 141 ng/mL | Plasma concentration between 5 min and 60 min post-administration [1, 3]: > 50 ng/mL

NC1(c2ccccc2Cl)CCCC(O)C1=O [(2S,6R;2R,6S)-HNK, (2S,6R;2R,6S)-hydroxynorketamine]
Plasma concentration at 30 min after ip administration [1]: 172 ng/mL | Plasma concentration at 10 min post-dosing [1, 3]: 252 ± 81 ng/mL | Plasma concentration between 5 min and 60 min post-administration [1, 3]: > 50 ng/mL | Plasma concentration Ratio (C/A) ([1]; 30 min post dosing): 4.5 | Plasma concentration Ratio (C/A) ([1]; 30 min post dosing, listed as (2S,6R,2R,6S)-HNK): 4.53 | Cmax [1, 5]: 2101 ng/mL | t1/2 [1, 5]: 1.3 h

N[C@@]1(c2ccccc2Cl)CCC[C@@H](O)C1=O [(2S,6S;2R,6R)-HNK, (2S,6S;2R,6R)-hydroxynorketamine]
t1/2 Ratio (A/C) [1]: 1.2 | Plasma concentration at 30 min after ip administration [1]: 4327 ng/mL | Plasma concentration between 5 min and 60 min post-administration [1, 3]: > 1,000 ng/ml | Cmax [1, 3]: 4641 ± 2020 ng/mL | Tmax [1, 3]: 0.61 ± 0.35 h | t1/2 ([1]; Acute: single ip 40 mg/kg (R,S)-Ket, male Wistar rats): 13.2 ± 3.7 h | Plasma concentration Ratio (C/A) ([1]; 30 min post dosing): 1.4 | Plasma concentration Ratio (C/A) ([1]; 30 min post dosing, listed as (2S,6S,2R,6R)-HNK): 1.42 | Plasma concentration at 72 hr post-administration ([1]; Sub-chronic, Day 14 dose): 15 ± 7 ng/mL | Cmax [1, 5]: 6491 ± 3008 ng/mL | Tmax [1, 5]: 0.78 ± 0.19 h | t1/2 [1, 5]: 11.1 ± 1.8 h
